In patent US20250032514A1, “COMPOSITIONS AND METHODS FOR THE TREATMENT OF VARIOUS DISEASES” (Amylyx Pharmaceuticals, Inc., priority 2023, published 2025):
Where two headings read alike, the source gives them in different places.

Assays:
[1] = system: G93A SOD1 mouse model of ALS; details: cited from earlier work
[2] = Study A35-002: single-dose PK of AMX0035, fasted vs high-fat meal, two-period cross-over; assay type: in vivo, human; details: for half-life: both sexes, human, plasma
Procedure: The pharmacokinetics (PK) of PB and TURSO after a single dose administration of AMX0035 were determined in adult (40 to 55 years of age) male and female normal healthy participants. Fourteen participants received a single dose of AMX0035 on two occasions (with a washout between periods of no less than 4 days), after fasting or after a high-fat standardized meal in a balanced, two-period, cross-over design (Study A35-002).
Clearance is rapid, and the terminal half-life (t1/2) is less than 1 hour. […] The primary metabolite of PB is phenylacetate (PAA), which occurs endogenously as a phenylalanine metabolite. […] Many participants had two or three peaks of absorption, which is consistent with bile acid storage and release upon a meal/snack. […] The primary metabolites of TURSO include ursodeoxycholic acid (UDCA) and glycoursodeoxycholic acid (GUDCA). All three are naturally occurring hydrophilic bile acids and subject to extensive enterohepatic recirculation.

[3] = in vivo; cited from earlier work
[4] = single oral dose of AMX0035, healthy adults

Structure (SMILES) | survival in in vivo models [1] | half-life ([2]; oral, under both the fed and fasted condition, read-out: terminal half-life (converted)) | half-life ([2]; single oral dose of AMX0035, healthy adults, read-out: terminal half-life (t1/2)) | absorption in the presence of a high-fat meal ([2]; high-fat meal vs fasted) | overall exposure in the presence of a high-fat meal ([2]; high-fat meal vs fasted) | absorption of PB [2, 4] | clearance [2, 4] | most common adverse reactions reported (≥1%) [3] | half-life ([2]; oral, fasting, read-out: terminal t1/2 (average) (converted)) | terminal t1/2 (average) ([2]; fed) | absorption of TURSO ([2]; given with or without food) | Cmax in the presence of a high-fat meal ([2]; high-fat meal vs fasted) | increase in exposure as AUC0-last in the presence of a high-fat meal ([2]; high-fat meal vs fasted)
O=C(O)CCCc1ccccc1 [PB, sodium phenylbutyrate] | increase survival | ~0.5 h | < 1 h | significantly slower | lower | rapidly absorbed | rapid |  |  |  |  |  | 
C[C@H](CCC(=O)NCCS(=O)(=O)O)[C@H]1CC[C@H]2[C@@H]3[C@@H](O)C[C@@H]4C[C@H](O)CC[C@]4(C)[C@H]3CC[C@]12C [TURSO, taurursodiol] |  |  |  |  |  |  |  | abdominal discomfort, abdominal pain, diarrhea, nausea, pruritus, and rash | 4.8 h | 3.6 h | slowly absorbed | similar | less than 1 fold
